Laboratory results reported in ChEMBL document CHEMBL1132340, “Novel prodrug approach for tertiary amines: synthesis and preliminary evaluation of N-phosphonooxymethyl prodrugs” (J Med Chem, 1999).

Tests used:
Format in all cases: physicochemical
[1] = pKa1 value of the compound; conditions: read-out: pKa1
[2] = pKa2 value of the compound; conditions: read-out: pKa2
[3] = pKa value of the compound

pKa [1]	pKa [2]	pKa [3]	Structure (SMILES)
1.95	7.47		O=P(O)(O)OC[N+]1(C/C=C/c2ccccc2)CCN(C(c2ccccc2)c2ccccc2)CC1
		6.56	CCCCc1oc2ccccc2c1C(=O)c1cc(I)c(OCC[N+](CC)(CC)COP(=O)(O)O)c(I)c1
	7.5		C[N+]1(COP(=O)(O)O)CCN(C2=Nc3ccccc3Oc3ccc(Cl)cc32)CC1
